Test results from ChEMBL document CHEMBL1126865, “Structure-activity relationship within a series of pyrazolidinone antibacterial agents. 2. Effect of side-chain modification on in vitro activity and pharmacokinetic parameters” (J Med Chem, 1993).
In brackets after ≈: the same amount, converted by molar mass.

How the values were obtained:
Format in all cases: functional
Klebsiella aerogenes = assay: In vitro antibacterial activity against Enterobacter aerogenes C32
Escherichia coli = assay: In vitro antibacterial activity against Escherichia coli EC14
Haemophilus influenzae = assay: In vitro antibacterial activity against Haemophilus influenza C.L
Klebsiella pneumoniae = assay: In vitro antibacterial activity against Klebsiella X26
Pseudomonas aeruginosa = assay: In vitro antibacterial activity against Pseudomonas PS72
[1] = tested on: Staphylococcus epidermidis; assay: In vitro antibacterial activity against Staphylococcus epidermidis 222
Staphylococcus aureus = assay: In vitro antibacterial activity against Staphylococcus aureus X1.1
Streptococcus pneumoniae = assay: In vitro antibacterial activity against Streptococcus pneumoniae PARK

| Structure (SMILES) | MIC (Klebsiella aerogenes) [mg/L] | MIC (Escherichia coli) [mg/L] | MIC (Haemophilus influenzae) [mg/L] | MIC (Klebsiella pneumoniae) [mg/L] | MIC (Pseudomonas aeruginosa) [mg/L] | MIC [1] [mg/L] | MIC (Staphylococcus aureus) [mg/L] | MIC (Streptococcus pneumoniae) [mg/L] |
| --- | --- | --- | --- | --- | --- | --- | --- | --- |
| N#CC1=C(C(=O)O)N2C(=O)[C@@H](NC(=O)CSc3cc(Cl)ccc3Cl)CN2C1 | > 128 | > 128 | 8 (≈ 18.7 µM) | 8 (≈ 18.7 µM) | > 128 | 4 (≈ 9.36 µM) | 1 (≈ 2.34 µM) | 0.125 (≈ 0.293 µM) |
| C=CCO/N=C(/C(=O)N[C@H]1CN2CC(S(=O)(=O)CC=C)=C(C(=O)O)N2C1=O)c1csc(N)n1 | 0.5 (≈ 1.01 µM) | 0.125 (≈ 0.252 µM) | 0.25 (≈ 0.503 µM) | 0.03 (≈ 0.0604 µM) | > 128 | 32 (≈ 64.4 µM) | 8 (≈ 16.1 µM) | 0.125 (≈ 0.252 µM) |
| CCS(=O)(=O)C1=C(C(=O)O)N2C(=O)[C@@H](NC(=O)/C(=N/OCCCl)c3csc(N)n3)CN2C1 | 0.5 (≈ 0.986 µM) | 0.25 (≈ 0.493 µM) | 1 (≈ 1.97 µM) | 0.125 (≈ 0.247 µM) | > 128 | 32 (≈ 63.1 µM) | 16 (≈ 31.6 µM) | 0.25 (≈ 0.493 µM) |
| CCCS(=O)(=O)C1=C(C(=O)O)N2C(=O)[C@@H](NC(=O)/C(=N/OCC(F)(F)F)c3csc(N)n3)CN2C1 | 1 (≈ 1.85 µM) | 0.25 (≈ 0.463 µM) | 0.25 (≈ 0.463 µM) | 0.06 (≈ 0.111 µM) | > 128 | 32 (≈ 59.2 µM) | 16 (≈ 29.6 µM) | 0.125 (≈ 0.231 µM) |
| N#CC1=C(C(=O)O)N2C(=O)[C@@H](NC(=O)/C(=N/OCCCl)c3csc(N)n3)CN2C1 | 1 (≈ 2.27 µM) | 0.25 (≈ 0.568 µM) | 0.5 (≈ 1.14 µM) | 0.125 (≈ 0.284 µM) | > 128 | 16 (≈ 36.4 µM) | 32 (≈ 72.8 µM) | 0.5 (≈ 1.14 µM) |
| C=CCCCO/N=C(/C(=O)N[C@H]1CN2CC(S(C)(=O)=O)=C(C(=O)O)N2C1=O)c1csc(N)n1 | 1 (≈ 2.01 µM) | 0.25 (≈ 0.501 µM) | 0.25 (≈ 0.501 µM) | 0.06 (≈ 0.12 µM) | 128 (≈ 257 µM) | 8 (≈ 16 µM) | 8 (≈ 16 µM) | 0.5 (≈ 1 µM) |
| N#CC1=C(C(=O)O)N2C(=O)[C@@H](NC(=O)Cn3cnnn3)CN2C1 | > 128 | > 128 | > 128 | > 128 | > 128 | > 128 | > 128 | > 128 |
| CCN1CCN(C(=O)N[C@@H](C(=O)N[C@H]2CN3CC(C#N)=C(C(=O)O)N3C2=O)c2ccccc2)C(=O)C1=O | 2 (≈ 3.93 µM) | 1 (≈ 1.96 µM) | 0.5 (≈ 0.981 µM) | 0.5 (≈ 0.981 µM) | 128 (≈ 251 µM) | 32 (≈ 62.8 µM) | 16 (≈ 31.4 µM) | 4 (≈ 7.85 µM) |
| Nc1nc(/C(=N\OCCCl)C(=O)N[C@H]2CN3CC(S(=O)(=O)c4ccccc4)=C(C(=O)O)N3C2=O)cs1 | 4 (≈ 7.21 µM) | 1 (≈ 1.8 µM) | 0.25 (≈ 0.45 µM) | 0.06 (≈ 0.108 µM) | > 128 | 32 (≈ 57.7 µM) | 16 (≈ 28.8 µM) | 0.06 (≈ 0.108 µM) |

Now from value to molecule:

| MIC (Klebsiella aerogenes) [mg/L] | MIC (Escherichia coli) [mg/L] | MIC (Haemophilus influenzae) [mg/L] | MIC (Klebsiella pneumoniae) [mg/L] | MIC (Pseudomonas aeruginosa) [mg/L] | MIC [1] [mg/L] | MIC (Staphylococcus aureus) [mg/L] | MIC (Streptococcus pneumoniae) [mg/L] | Structure (SMILES) |
| --- | --- | --- | --- | --- | --- | --- | --- | --- |
| 0.5 (≈ 1.07 µM) | 0.25 (≈ 0.534 µM) | 0.25 (≈ 0.534 µM) | 0.125 (≈ 0.267 µM) | > 128 | 32 (≈ 68.3 µM) | 32 (≈ 68.3 µM) | 0.25 (≈ 0.534 µM) | C#CCO/N=C(/C(=O)N[C@H]1CN2CC(S(C)(=O)=O)=C(C(=O)O)N2C1=O)c1csc(N)n1 |
| 0.06 (≈ 0.126 µM) | 0.015 (≈ 0.0315 µM) | 0.25 (≈ 0.525 µM) | 0.03 (≈ 0.063 µM) | 128 (≈ 269 µM) | 16 (≈ 33.6 µM) | 16 (≈ 33.6 µM) | 0.06 (≈ 0.126 µM) | CS(=O)(=O)C1=C(C(=O)O)N2C(=O)[C@@H](NC(=O)/C(=N/OCCF)c3csc(N)n3)CN2C1 |
| 1 (≈ 2.06 µM) | 0.25 (≈ 0.514 µM) | 0.125 (≈ 0.257 µM) | 0.03 (≈ 0.0617 µM) | > 128 | 4 (≈ 8.22 µM) | 4 (≈ 8.22 µM) | 0.06 (≈ 0.123 µM) | CCCCO/N=C(/C(=O)N[C@H]1CN2CC(S(C)(=O)=O)=C(C(=O)O)N2C1=O)c1csc(N)n1 |
| 0.5 (≈ 1.07 µM) | 0.25 (≈ 0.533 µM) | 2 (≈ 4.26 µM) | 0.25 (≈ 0.533 µM) | > 128 | 128 (≈ 273 µM) | 64 (≈ 136 µM) | 0.25 (≈ 0.533 µM) | CS(=O)(=O)C1=C(C(=O)O)N2C(=O)[C@@H](NC(=O)/C(=N/OCC#N)c3csc(N)n3)CN2C1 |
| 0.25 (≈ 0.512 µM) | 0.06 (≈ 0.123 µM) | 1 (≈ 2.05 µM) | 0.125 (≈ 0.256 µM) | 128 (≈ 262 µM) | > 128 | > 128 | 2 (≈ 4.09 µM) | CS(=O)(=O)C1=C(C(=O)O)N2C(=O)[C@@H](NC(=O)/C(=N/OCC(=O)O)c3csc(N)n3)CN2C1 |
| 0.125 (≈ 0.254 µM) | 0.125 (≈ 0.254 µM) | 0.5 (≈ 1.01 µM) | 0.03 (≈ 0.0609 µM) | > 128 | 32 (≈ 64.9 µM) | 16 (≈ 32.5 µM) | 0.25 (≈ 0.507 µM) | CS(=O)(=O)C1=C(C(=O)O)N2C(=O)[C@@H](NC(=O)/C(=N/OCCCl)c3csc(N)n3)CN2C1 |
| 0.125 (≈ 0.233 µM) | 0.125 (≈ 0.233 µM) | 0.125 (≈ 0.233 µM) | 0.03 (≈ 0.0558 µM) | > 128 | 8 (≈ 14.9 µM) | 8 (≈ 14.9 µM) | 0.125 (≈ 0.233 µM) | CS(=O)(=O)C1=C(C(=O)O)N2C(=O)[C@@H](NC(=O)/C(=N/OCCBr)c3csc(N)n3)CN2C1 |
